Source: patent US11673853B2, “Small molecule AMPK activators” (University of Pittsburgh—Of the Commonwealth System of …, priority 2016, dated 2023)

How the values were obtained:
AMPKα1 and AMPKα2 mRNA = experiment: AMPK mRNA analysis in Beas2b cells; format: cell-based, Human; settings: glucose-free media, 18 h
Experimental: (§1) FIG. 4. (A) Beas2b cells were cultured in DMEM 2% media with glucose for 24 h before switching to glucose-free media. Cells were then exposed to Compound 12 in a dose dependent manner for 18 h before being collected for immunoblotting. (B) Beas2b cells were cultured in DMEM 2% media with glucose for 24 h before Compound 12 treatment in a dose dependent manner. After 18 h, cells were then collected for immunoblotting. (C) Beas2b cells were cultured in DMEM 2% media with glucose for 24 h before switching to glucose-free media. Cells were then exposed to Compound 12 for 18 h before being collected for mRNA analysis. (D) 50K PBMC cells were cultured in 96 well plates before being exposed to Compound 12 for 4 h. Cells were then treated with LPS (10 ng/ml) for additional 2 h. Media were then collected and IL-1b concentration was determined by ELISA.
A SAR study was performed by constructing analogs of Compound 1. […] Compound 12 was further tested in PBMCs. Briefly, PBMCs were treated with Compound 12 at various concentrations for 4 h before exposure to LPS (10 ng/ml) for 2 h.

phospho-AMPK = phospho-AMPK / p-ACC immunoblotting in Beas2B cells (in vitro studies); format: cell-based, Human
Experimental: FIG. 3. (A) Beas2b cells were cultured in DMEM 2% media with glucose for 24 h before switching to glucose-free media. Cells were then exposed to either DMSO or Compound 1 (2 μM) in a time course before being collected for immunoblotting. (B) Beas2B cells were exposed to Compound 1 for 18 h at various doses before being collected for immunoblotting. (C) Beas2b cells were cultured in DMEM 2% media with glucose for 24 h before switching to glucose-free media. Cells were then exposed to AICAR at various doses with or without Compound 1 co-treatment. After 18 h, cells were collected before being assayed by immunoblotting.
as §1
FIG. 9. (A) Beas2b cells were cultured in DMEM 2% media with glucose for 24 h before switching to glucose-free media. Cells were then exposed to Compound 23 or metformin in a dose dependent manner for 18 h before being collected for immunoblotting. (B) Beas2b cells were cultured in DMEM 2% media with glucose for 24 h before switching to glucose-free media and treated with Compound 12 or Compound 23 in a dose dependent manner. After 6 h, cells were then collected for immunoblotting. (C) Beas2b cells were cultured in DMEM 2% media with glucose for 24 h before switching to glucose-free media and treated with Compound 12 or Compound 23 in a dose dependent manner. After 18 h, cells were then collected for immunoblotting. (D) Beas2b cells were transfected with AMPK phospho mimic T172D or phospho dead T172A mutant for 24 h. Cells were then switched to glucose-free media and exposed to Compound 23 in a dose or time dependent manner before being collected for immunoblotting. (E) Beas2b cells were transfected with control siRNA or Fbxo48 siRNA for 48 h before switching to glucose-free media. Cells were then exposed to Compound 23 in a dose dependent manner before being collected for immunoblotting. (F) Compound 23 chemical structure.
Compound 1 was studied in in vitro assays using Beas2B cells. […]
Compound 23 was tested in in vitro studies using Beas2B cells and compared with metformin.

mice = experiment: Cecal ligation and puncture (CLP)-induced sepsis model; format: in vivo; settings: 10 mg/kg i.p., 24 h
Experimental: FIG. 6. Mice were anesthetized prior to the cecal ligation and puncture (CLP) procedure. Compound 12 (10 mg/kg) was then administered immediately afterwards through an intraperitoneal (i.p.) injection. After 24 h, mice were euthanized and blood was collected for assays of IL-6, TNF, and IL1-β levels. Peritoneal fluid was obtained for determination of bacterial counts after CLP in mice. The lungs were also lavaged with saline, harvested, and then homogenized. Lavage cytokine secretion (C-E), protein (A), cell counts (B) were measured. The data represent n=4-5 mice/group, *P<0.05 Compound 12 versus vehicle. Presence of AMPK and pAMPK was also determined (F).
Compound 12 was examined in a model of cecal ligation and puncture (CLP)-induced sepsis.

pAMPK = pAMPK immunoblotting in Beas2B cells (Table 1); format: cell-based; settings: Homo sapiens, BEAS-2B, DMEM media without glucose, compounds 18 h
Experimental: Additional compounds in Table 1 were or can be prepared according to the above-described Examples. Human bronchial epithelial cells (Beas2B) were seeded in 6-well plates for 18 h. Cells were then exposed to DMEM media without glucose and compounds at various concentrations for an additional 18 h before being collected for immunoblotting.

Diet-induced obese mice = experiment: Hyperinsulinemic euglycemic clamp study; format: in vivo; settings: BC1618 20 mg/kg twice
Experimental: FIG. 30. Diet-induced obese mice were dosed 1× with vehicle or BC1618 (20 mg/kg) prior to overnight fast, followed by a 1× (20 mg/kg) morning dose prior to hyperinsulinemic euglycemic clamp. Body weight measurements are shown.
FIG. 31. From the same study as in FIG. 30, fasting plasma glucose and glucose infusion rate values are shown.
FIG. 32. From the same study as in FIG. 30, glucose infusion rate values are shown.
Diet-induced obese mice were dosed 1× with vehicle or BC1618 (20 mg/kg) prior to overnight fast, followed by a 1× (20 mg/kg) morning dose prior to hyperinsulinemic euglycemic clamp. […] Plasma glucose levels were matched during the clamp (FIG. 31, upper portion). The glucose infusion rate (GIR) required to maintain euglycemia in the 1618 treated mice was approximately 2-fold greater than VEH treated mice (FIG. 31, lower portion and average over last 40 min in FIG. 32, P<0.001), indicating improved whole-body insulin sensitivity.

[1] = system: High-fat diet fed C57BL6J mice; experiment: Acute oral dosing study in high-fat diet fed mice; format: in vivo
PBMC cells = experiment: Cytokine array of LPS-treated PBMC cells; format: cell-based, human; settings: 5 μM 18 h, then LPS 100 ng/ml 4 h
Experimental: FIG. 10. (A) 50K PBMC cells were cultured in 96 well plates before being exposed to Compound 23 for 18 h. Cells were then treated with LPS (10 ng/ml) for additional 4 h. Media were then collected and TNF and IL-1b concentration were determined by ELISA. (B) PBMC cells (1 mL at 1.0×10^6/ml) were treated with Compound 23 (5 μM) for 18 h. Cells were then treated with 100 ng/ml LPS for 4 h. Cytokine release was monitored by the human cytokine array (R&D systems). The results from a cytokine array dot blot were quantitated and graphed.
Compound 23 was tested in in vitro inflammatory assays. 50K PBMC cells were cultured in 96 well plates before being exposed to Compound 23 for 18 h. Cells were then treated with LPS (10 ng/ml) for additional 4 h. Media were then collected and assayed for TNF and IL-1b. […] Cytokine arrays were used to profile which cyotokine/chemokines were regulated by Compound 23.

Row | SMILES | mRNA levels of both AMPKα1 and AMPKα2 (AMPKα1 and AMPKα2 mRNA) | concentration effectively increasing phospho-AMPK and downstream p-ACC levels (phospho-AMPK; Beas2b, with or without glucose, 18 h) | CLP-induced lung injury (BAL cytokines, protein and cell counts) (mice) | CLP-induced secretion of circulating proinflammatory cytokines (IL-6, TNF, IL1-β) (mice) | bacterial count (mice; peritoneal fluid) | IC50 (pAMPK) | body weight prior to clamp (Diet-induced obese mice) | glucose infusion rate (GIR) required to maintain euglycemia, relative to VEH treated mice (Diet-induced obese mice; P<0.001) | fasting plasma glucose (Diet-induced obese mice; before clamp, vehicle 111±3, P=0.12) | level of AMPK T172D phospho mimic mutant (phospho-AMPK; Beas2b transfected with T172D mutant, glucose-free media) | pAMPK and pACC levels after Fbxo48 knockdown (phospho-AMPK; Beas2b, Fbxo48 siRNA 48 h, glucose-free media) | activity on pAMPK compared to Compound 12 (phospho-AMPK; Beas2b, glucose-free media, 6 h and 18 h) | concentration range increasing pAMPK phosphorylation and downstream substrate ACC phosphorylation (phospho-AMPK; Beas2b, glucose-free media, 18 h) | glucose tolerance (intraperitoneal glucose tolerance test) ([1]; 1 g/kg body weight glucose, data not shown) | body weight at the time of study ([1]; two oral doses (AICAR 200 mg/kg, BC1618 20 mg/kg)) | reduction of fasting plasma glucose compared to vehicle ([1]; two oral doses (AICAR 200 mg/kg, BC1618 20 mg/kg), 2 h after second dose, P=0.08) | cytokines/chemokines regulated (cytokine array) (PBMC cells)
1 | OC(COc1ccc(F)cc1)CN(Cc1ccccc1)Cc1ccccc1 (stereo not drawn) [Compound 12] | effectively decreased | 100 to 500 nM | effectively reduce severities | significantly attenuated | without affecting bacterial count | < 1 mg/L | – | – | – | – | – | – | – | – | – | – | –
2 | OC(COc1ccc(C(F)(F)F)cc1)CN(Cc1ccccc1)Cc1ccccc1 (stereo not drawn) [Compound 23] | – | – | – | – | – | < 1 mg/L | no difference in body weight | approximately 2 fold | 100 ± 6 mg/dL | drastically increases | not able to further activate the pathway | comparable or slightly improved activity | submicromolar | no difference in glucose tolerance | no differences in body weight | 25% | decreases CD40, GMCSF, IL-1b, IL-1ra, IL-2, IL-12, IL-13, ITAC and TNF
